Data from US8859574B2 (IRM LLC, priority 2008, dated 2014).

Target: T1, IGF-1R Ba/F3 (Homo sapiens, UniProt P08069)
T1 construct: fused on or other part: TEL- (or BCR-) IGF-1R in Ba/F3: the kinase part holds the site
Experiment: Ba/F3 Cell Viability Inhibition Assay (IGF-1R Ba/F3)
Format: cell-based, murine
Settings: Tel-TK transformed Ba/F3 cells, 48 hours, Britelite luminescence
Procedure, shortened: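 IL-3-independent murine Ba/F3 cells transformed with a TEL/BCR-fused IGF-1R kinase were seeded at 3750 cells/well and exposed to serially diluted compound for 48 h at 37 °C. Viability was read by Britelite luminescence. IC50 is the concentration giving 50% of DMSO-control viability, from a logistic fit.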

T1 sequence (P08069 999-1274 limits assumed): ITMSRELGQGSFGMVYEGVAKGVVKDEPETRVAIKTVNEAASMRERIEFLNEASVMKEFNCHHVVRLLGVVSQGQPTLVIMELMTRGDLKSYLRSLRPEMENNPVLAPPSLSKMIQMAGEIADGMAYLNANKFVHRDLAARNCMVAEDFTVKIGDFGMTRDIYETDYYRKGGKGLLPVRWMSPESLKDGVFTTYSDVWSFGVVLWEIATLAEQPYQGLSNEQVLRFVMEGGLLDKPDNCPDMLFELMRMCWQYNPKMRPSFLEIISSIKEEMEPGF

Compound | IC50
CCC(C(=O)NC)N1CCC(c2cc(C)c(Nc3ncc(Cl)c(Nc4cc(C)[nH]n4)n3)cc2C)CC1 (stereo not drawn) [Compound 189, 2-(4-(4-(5-chloro-4-(5-methyl-1H-pyrazol-3-ylamino)pyrimidin-2-ylamino)-2,5-dimethylphenyl)piperidin-1-yl)-N-methylbutanamide] | 7 nM
Cc1cc(Nc2ncc(Cl)c(Nc3cc(C4CC4)[nH]n3)n2)c(F)cc1C1CCNCC1 [Compound 17, 5-chloro-N4-(5-cyclopropyl-1H-pyrazol-3-yl)-N2-(2-fluoro-5-methyl-4-(piperidin-4-yl)phenyl)pyrimidine-2,4-diamine] | 160 nM
Cc1cc(Nc2nc(Nc3cc(C)c(C4CCN(Cc5cncnc5)CC4)cc3F)ncc2Cl)n[nH]1 [Compound 314, 5-Chloro-N^2-(2-fluoro-5-methyl-4-(1-(pyrimidin-5-ylmethyl)piperidin-4-yl)phenyl)-N^4-(5-methyl-1H-pyrazol-3-yl)pyrimidine-2,4-diamine] | 37 nM
Cc1cc(Nc2nc(Nc3cc(C)c(C4CCN(C(=O)Cn5cccc5)CC4)cc3F)ncc2Cl)n[nH]1 [Compound 100, 1-(4-(4-(5-chloro-4-(5-methyl-1H-pyrazol-3-ylamino)pyrimidin-2-ylamino)-5-fluoro-2-methylphenyl)piperidin-1-yl)-2-(1H-pyrrol-1-yl)ethanone] | 25 nM
Cc1cc(Nc2nc(Nc3cc(C)c(C4CCN(Cc5c(C)noc5C)CC4)cc3C)ncc2Cl)n[nH]1 [Compound 20, 5-chloro-N2-(4-(1-((3,5-dimethylisoxazol-4-yl)methyl)piperidin-4-yl)-2,5-dimethylphenyl)-N4-(5-methyl-1H-pyrazol-3-yl)pyrimidine-2,4-diamine] | 11 nM
Cc1cc(Nc2nc(Nc3cc(C)c(C4CCN(C(=O)OC(C)C)CC4)cc3F)ncc2Cl)n[nH]1 [Compound 68, isopropyl 4-(4-(5-chloro-4-(5-methyl-1H-pyrazol-3-ylamino)pyrimidin-2-ylamino)-5-fluoro-2-methylphenyl)piperidine-1-carboxylate] | 80 nM
Cc1cc(Nc2nc(Nc3cc(C#N)c(C4CCN(C)CC4)cc3C)ncc2Cl)n[nH]1 [Compound 286, 5-(5-chloro-4-(5-methyl-1H-pyrazol-3-ylamino)pyrimidin-2-ylamino)-4-methyl-2-(1-methylpiperidin-4-yl)benzonitrile] | 37 nM
CNC(=O)CN1CCC(c2cc(F)c(Nc3ncc(Cl)c(Nc4cc(C)[nH]n4)n3)cc2C)CC1 [Compound 42, 2-(4-(4-(5-chloro-4-(5-methyl-1H-pyrazol-3-ylamino)pyrimidin-2-ylamino)-5-fluoro-2-methylphenyl)piperidin-1-yl)-N-methylacetamide] | 19 nM
COc1cc(Nc2ncc(Cl)c(Nc3cc(C)[nH]n3)n2)c(C)cc1C1CCN(C[C@H](O)C(F)(F)F)CC1 [Compound 213, (S)-3-(4-(4-(5-chloro-4-(5-methyl-1H-pyrazol-3-ylamino)pyrimidin-2-ylamino)-2-methoxy-5-methylphenyl)piperidin-1-yl)-1,1,1-trifluoropropan-2-ol] | 12 nM
CCc1cc(Nc2nc(Nc3cc(C)c(C4CCN(CC(N)=O)CC4)cc3F)ncc2Cl)n[nH]1 [Compound 263, 2-(4-(4-(5-chloro-4-(5-ethyl-1H-pyrazol-3-ylamino)pyrimidin-2-ylamino)-5-fluoro-2-methylphenyl)piperidin-1-yl)acetamide] | 33 nM
Cc1cc(Nc2nc(Nc3cc(C)c(C4CCN(CC5CC5(F)F)CC4)cc3C)ncc2Cl)n[nH]1 (stereo not drawn) [Compound 249, 5-chloro-N2-(4-(1-((2,2-difluorocyclopropyl)methyl)piperidin-4-yl)-2,5-dimethylphenyl)-N4-(5-methyl-1H-pyrazol-3-yl)pyrimidine-2,4-diamine] | 32 nM
Cc1cc(Nc2nc(Nc3cc(C)c(C4CC[N+]([O-])(C5CS(=O)(=O)C5)CC4)cc3F)ncc2Cl)n[nH]1 (stereo not drawn) [Compound 295, 5-Chloro-N2-{4-[1-(1,1-dioxo-1λ6-thietan-3-yl)-1-oxide-piperidin-4-yl]-2-fluoro-5-methyl-phenyl}-N4-(5-ethyl-1H-pyrazol-3-yl)-pyrimidine-2,4-diamine] | 39 nM
Cc1cc(Nc2nc(Nc3cc(C)c(N4CCNCC4=O)cc3C)ncc2Cl)n[nH]1 [Compound 155, 1-(4-(5-chloro-4-(5-methyl-1H-pyrazol-3-ylamino)pyrimidin-2-ylamino)-2,5-dimethylphenyl)piperazin-2-one] | 1650 nM
Cc1cc(Nc2nc(Nc3cc(C)c(C4CCN(Cc5ccccn5)CC4)cc3C)ncc2Cl)n[nH]1 [Compound 307, 5-chloro-N2-(2,5-dimethyl-4-(1-(pyridin-2-ylmethyl)piperidin-4-yl)phenyl)-N4-(5-methyl-1H-pyrazol-3-yl)pyrimidine-2,4-diamine] | 7 nM
Cc1cc(Nc2nc(Nc3cc(C)c(C4CCN(C(=O)CCN(C)C)CC4)cc3C)ncc2Cl)n[nH]1 [Compound 239, 1-(4-(4-(5-chloro-4-(5-methyl-1H-pyrazol-3-ylamino)pyrimidin-2-ylamino)-2,5-dimethylphenyl)piperidin-1-yl)-3-(dimethylamino)propan-1-one] | 73 nM
Cc1cc(Nc2nc(Nc3cc(C)c(C4CCN([C@@H]5CCN(S(C)(=O)=O)C5)CC4)cc3F)ncc2Cl)n[nH]1 [Compound 312, (R)-5-chloro-N2-(2-fluoro-5-methyl-4-(1-(1-(methylsulfonyl)pyrrolidin-3-yl)piperidin-4-yl)phenyl)-N4-(5-methyl-1H-pyrazol-3-yl)pyrimidine-2,4-diamine] | 25 nM
Cc1cc(Nc2nc(Nc3cc(C)c(C4CCN(S(=O)(=O)CCCN5C[C@@H](O)[C@H](O)C5)CC4)cc3C)ncc2Cl)n[nH]1 [Compound 196, (3R,4R)-1-(3-(4-(4-(5-chloro-4-(5-methyl-1H-pyrazol-3-ylamino)pyrimidin-2-ylamino)-2,5-dimethylphenyl)piperidin-1-ylsulfonyl)propyl)pyrrolidine-3,4-diol] | 370 nM
Cc1cc(Nc2nc(Nc3cc(C)c(C4CCN(Cc5cccnc5)CC4)cc3C)ncc2Cl)n[nH]1 [Compound 308, 5-chloro-N2-(2,5-dimethyl-4-(1-(pyridin-3-ylmethyl)piperidin-4-yl)phenyl)-N4-(5-methyl-1H-pyrazol-3-yl)pyrimidine-2,4-diamine] | 6 nM
Cc1cc(Nc2nc(Nc3cc(C)c(C4CCN(CC(O)C(F)(F)F)CC4)cc3C)ncc2Cl)n[nH]1 (stereo not drawn) [Compound 29, 3-(4-(4-(5-chloro-4-(5-methyl-1H-pyrazol-3-ylamino)pyrimidin-2-ylamino)-2,5-dimethylphenyl)piperidin-1-yl)-1,1,1-trifluoropropan-2-ol] | 23 nM
Cc1cc(Nc2nc(Nc3cc(C)c(C4CNC4)cc3C)ncc2Cl)n[nH]1 [Compound 237, N2-(4-(azetidin-3-yl)-2,5-dimethylphenyl)-5-chloro-N4-(5-methyl-1H-pyrazol-3-yl)pyrimidine-2,4-diamine] | 410 nM
Cc1cc(Nc2nc(Nc3cc(C)c(C4CCN(Cc5nc(C(C)C)no5)CC4)cc3C)ncc2Cl)n[nH]1 [Compound 260, 5-chloro-N2-(4-(1-((3-isopropyl-1,2,4-oxadiazol-5-yl)methyl)piperidin-4-yl)-2,5-dimethylphenyl)-N4-(5-methyl-1H-pyrazol-3-yl)pyrimidine-2,4-diamine] | 18 nM
